pIC50: −log10 of the molar value.
Assays:
Assay type in all cases: biochemical
enkephalinase = enkephalinase (Homo sapiens, UniProt P08473); assay: Selectivity against other zinc-containing metalloproteases: enkephalinase; settings: selectivity statement
[1] = tested on: angiotensin converting enzymes; assay: Selectivity against other zinc-containing metalloproteases: angiotensin converting enzymes; settings: selectivity statement
neurolysin = neurolysin (Homo sapiens, UniProt Q9BYT8); assay: Neurolysin inhibition assay (fluorogenic substrate, 384-well); settings: substrate Mcc-Pro-Leu-Gly-D-Lys(Dnp)-OH 4 μM, 30° C., 30 min, Tris buffer pH 7.5
Chain of neurolysin (Q9BYT8 38-704): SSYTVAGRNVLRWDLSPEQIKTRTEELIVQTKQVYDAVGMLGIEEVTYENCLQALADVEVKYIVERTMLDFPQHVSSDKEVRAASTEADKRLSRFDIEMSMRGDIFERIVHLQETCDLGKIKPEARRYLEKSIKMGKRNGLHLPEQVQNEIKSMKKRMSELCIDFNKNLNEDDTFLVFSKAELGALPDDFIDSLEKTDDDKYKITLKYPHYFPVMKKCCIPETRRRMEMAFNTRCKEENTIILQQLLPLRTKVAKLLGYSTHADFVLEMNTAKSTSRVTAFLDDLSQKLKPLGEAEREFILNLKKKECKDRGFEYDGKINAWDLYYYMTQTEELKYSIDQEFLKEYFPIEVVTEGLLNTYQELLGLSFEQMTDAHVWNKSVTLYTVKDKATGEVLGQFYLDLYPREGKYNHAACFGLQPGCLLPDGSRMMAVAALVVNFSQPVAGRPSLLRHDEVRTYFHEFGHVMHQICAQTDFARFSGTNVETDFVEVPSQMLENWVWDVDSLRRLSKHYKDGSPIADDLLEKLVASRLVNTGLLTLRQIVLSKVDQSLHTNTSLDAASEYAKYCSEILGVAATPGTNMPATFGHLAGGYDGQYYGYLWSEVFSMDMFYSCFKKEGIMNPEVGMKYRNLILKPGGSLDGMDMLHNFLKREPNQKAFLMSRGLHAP
Procedure: An assay was performed on a CyBio pipetting system in a 384-well plate format in a final assay volume of 16 μl. In brief, 4 μl of appropriately diluted microbial extracts (dilution in 50 mM Tris buffer, pH 7.5) were distributed in wells of test plates (Greiner, white 384-small volume well plates). Thereafter, 4 μl of neurolysin (pre-diluted 1:5, 360 ng of protein) were added to each well. After a 10 minute pre-incubation of the samples and the enzyme at room temperature, the reaction was initiated by the addition of 8 μl of substrate (Mcc-Pro-Leu-Gly-D-Lys (Dnp)—OH, CALBIOCHEM) in Tris buffer. The final test concentration of the substrate was 4 μM.
After pipetting, the plates were immediately placed in a fluorometer (SpectraFluorplus, SLT) and the initial amount of fluorescence was read (λex: 360 nm/λem405 nm). The reaction was then allowed to proceed at 30° C. for 30 min, and a final fluorescence reading was taken.
The data are first blank corrected. Then, after subtracting the values at the zero time point from the respective values after 30 min, sample inhibition activity was expressed as 100−(Net Intensity compound/Net Intensity control)×100(%)
Each test plate contained a reasonable number of positive controls and blanks (buffer instead of enzyme).

Chain of enkephalinase (P08473 whole entry, species assumed): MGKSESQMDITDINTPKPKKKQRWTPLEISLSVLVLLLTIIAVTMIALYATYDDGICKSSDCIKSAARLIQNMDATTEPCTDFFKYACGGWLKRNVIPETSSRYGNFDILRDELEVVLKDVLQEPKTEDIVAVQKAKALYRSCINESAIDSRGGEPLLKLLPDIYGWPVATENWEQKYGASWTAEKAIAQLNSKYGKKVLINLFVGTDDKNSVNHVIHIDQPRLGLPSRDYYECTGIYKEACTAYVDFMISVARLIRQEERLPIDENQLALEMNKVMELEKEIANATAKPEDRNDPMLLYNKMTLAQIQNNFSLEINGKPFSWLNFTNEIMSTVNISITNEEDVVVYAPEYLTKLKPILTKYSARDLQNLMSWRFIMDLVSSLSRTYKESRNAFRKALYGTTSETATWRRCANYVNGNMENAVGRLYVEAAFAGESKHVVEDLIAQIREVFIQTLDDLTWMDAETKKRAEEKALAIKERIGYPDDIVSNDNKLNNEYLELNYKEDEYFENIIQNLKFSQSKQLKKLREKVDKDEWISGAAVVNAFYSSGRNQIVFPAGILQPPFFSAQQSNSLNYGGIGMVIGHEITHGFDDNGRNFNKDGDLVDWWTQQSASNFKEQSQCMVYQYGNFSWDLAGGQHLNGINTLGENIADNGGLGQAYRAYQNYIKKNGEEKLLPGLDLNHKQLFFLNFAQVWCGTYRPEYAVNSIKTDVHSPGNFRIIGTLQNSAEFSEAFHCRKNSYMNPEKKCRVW

- blocking of enkephalinase (enkephalinase): does not block
- blocking of angiotensin converting enzymes [1]: does not block
- pIC50 (neurolysin): 6.22
SMILES: CC(=O)NC1=C2SS(=O)(=O)C=C2N(C)C1=O [thiolutin dioxide]

From patent publication US20050059725A1, “Methods of using and preparing thiolutin dioxide” (Aventis Pharma Deutschland GmbH, priority 2001, published 2005)
